In the NIST ThermoML archive (doi:10.1021/je060271a):

Conditions: Liquid, Vibrating tube method

CCCCCC(=O)OCC(COC(=O)CCCCC)(COC(=O)CCCCC)COC(=O)CCCCC [pentaerythritol tetrahexanoate]
Conditions | mass density [kg/m3]
303.17 K, 1567.2 kPa | 989.3
303.17 K, 1583.5 kPa | 989.4
303.17 K, 1597.3 kPa | 989.4
303.17 K, 1611.3 kPa | 989.4
303.17 K, 1628.3 kPa | 989.5
303.17 K, 5535.7 kPa | 992
303.17 K, 5553.1 kPa | 991.9
303.17 K, 5573.9 kPa | 992
303.17 K, 17353 kPa | 999.2
303.17 K, 32996 kPa | 1008
303.17 K, 33019 kPa | 1007.9
303.17 K, 33039 kPa | 1007.9
303.17 K, 33058 kPa | 1008
303.17 K, 33082 kPa | 1008.1
303.17 K, 33102 kPa | 1007.9
303.17 K, 33125 kPa | 1008
303.17 K, 33145 kPa | 1008
303.17 K, 33165 kPa | 1007.9
323.14 K, 384.5 kPa | 973
323.14 K, 386.4 kPa | 972.9
323.14 K, 388.7 kPa | 972.8
323.14 K, 391.1 kPa | 972.8
323.14 K, 393.7 kPa | 972.9
323.14 K, 396.7 kPa | 972.9
323.14 K, 398.7 kPa | 973
323.14 K, 401.3 kPa | 973
323.14 K, 403.6 kPa | 972.9
323.14 K, 406.6 kPa | 972.9
323.14 K, 408.8 kPa | 972.9
323.14 K, 411.4 kPa | 973
323.14 K, 414.9 kPa | 972.9
323.14 K, 417.5 kPa | 972.8
323.14 K, 420.5 kPa | 972.9
323.14 K, 423.2 kPa | 973
323.14 K, 426 kPa | 972.9
323.14 K, 429.2 kPa | 972.9
323.14 K, 431.6 kPa | 972.9
323.14 K, 434.7 kPa | 973.1
323.14 K, 438 kPa | 972.9
323.14 K, 440.8 kPa | 972.9
323.14 K, 477.3 kPa | 972.9
323.14 K, 481.1 kPa | 973
323.14 K, 484.4 kPa | 972.9
323.14 K, 488.9 kPa | 972.9
323.14 K, 492.6 kPa | 973
323.14 K, 495.7 kPa | 973
323.14 K, 499.5 kPa | 973
323.14 K, 503.9 kPa | 973
323.14 K, 507.5 kPa | 973.1
323.14 K, 512.4 kPa | 973.1
323.14 K, 516.2 kPa | 973
323.14 K, 645.8 kPa | 973.2
323.14 K, 648.1 kPa | 973.1
323.14 K, 650 kPa | 973
323.14 K, 652.6 kPa | 973.1
323.14 K, 654.5 kPa | 973.1
323.14 K, 657.1 kPa | 972.9
323.14 K, 686.8 kPa | 973.3
323.14 K, 689.8 kPa | 973
323.14 K, 692.2 kPa | 973.1
323.14 K, 694.8 kPa | 973.3
323.14 K, 697.1 kPa | 973.2
323.14 K, 763.3 kPa | 973.2
323.14 K, 801.5 kPa | 973.1
323.14 K, 803.8 kPa | 973.2
323.14 K, 807.1 kPa | 973.2
323.14 K, 809.5 kPa | 973.2
323.14 K, 812.1 kPa | 973.3
323.14 K, 858.7 kPa | 973.2
323.14 K, 862.3 kPa | 973.3
323.14 K, 865.1 kPa | 973.2
323.14 K, 867.7 kPa | 973.2
323.14 K, 916.7 kPa | 973.3
323.14 K, 923.3 kPa | 973.2
323.14 K, 1440.1 kPa | 973.7
323.14 K, 1446.1 kPa | 973.7
323.14 K, 1451.7 kPa | 973.5
323.14 K, 1458.6 kPa | 973.7
323.14 K, 1465.1 kPa | 973.6
323.14 K, 1499.4 kPa | 973.7
323.14 K, 2143.7 kPa | 974.1
323.14 K, 2154.2 kPa | 974.2
323.14 K, 2163.4 kPa | 974.2
323.14 K, 2899 kPa | 974.7
323.14 K, 2935.4 kPa | 974.6
323.14 K, 2971.1 kPa | 974.8
323.14 K, 2984.1 kPa | 974.9
323.14 K, 2995.2 kPa | 974.8
323.14 K, 3008.5 kPa | 974.8
323.14 K, 3019.8 kPa | 974.7
323.14 K, 3032.8 kPa | 974.8
323.14 K, 3043.7 kPa | 974.8
323.14 K, 3057.4 kPa | 974.8
323.14 K, 3071.1 kPa | 974.7
323.14 K, 3082.4 kPa | 974.9
323.14 K, 3093.6 kPa | 974.9
323.14 K, 3107.5 kPa | 974.7
323.14 K, 3120.8 kPa | 974.9
323.14 K, 3132.5 kPa | 975
323.14 K, 3143.7 kPa | 975
323.14 K, 3157.8 kPa | 974.8
323.14 K, 3169 kPa | 974.9
323.14 K, 3182.6 kPa | 974.9
323.14 K, 3194.3 kPa | 974.9
323.14 K, 3207.9 kPa | 974.9
323.14 K, 3219.3 kPa | 975.1
323.14 K, 3233.3 kPa | 974.9
323.14 K, 3245.1 kPa | 974.9
323.14 K, 3259.7 kPa | 974.9
323.14 K, 3271.8 kPa | 975
323.14 K, 3285.5 kPa | 975
323.14 K, 3298 kPa | 974.9
323.14 K, 3312.4 kPa | 975
323.14 K, 3324.7 kPa | 975.1
323.14 K, 3339.9 kPa | 975.1
323.14 K, 3353.1 kPa | 975
323.14 K, 3384.1 kPa | 975
323.14 K, 3463.3 kPa | 975.1
323.14 K, 3495.4 kPa | 975.1
323.14 K, 4052.6 kPa | 975.6
323.14 K, 4071.6 kPa | 975.6
323.14 K, 4087 kPa | 975.6
323.14 K, 4103.5 kPa | 975.6
323.14 K, 4122.2 kPa | 975.5
323.14 K, 4176.9 kPa | 975.4
323.14 K, 4193.2 kPa | 975.6
323.14 K, 4530.6 kPa | 975.9
323.14 K, 4548.8 kPa | 975.8
323.14 K, 4570.3 kPa | 975.9
323.14 K, 4588.6 kPa | 975.9
323.14 K, 4610.6 kPa | 976
323.14 K, 4632.6 kPa | 975.9
323.14 K, 4650.7 kPa | 976
323.14 K, 4669.3 kPa | 975.9
323.14 K, 4691.8 kPa | 975.9
323.14 K, 4714.6 kPa | 975.9
323.14 K, 4733.6 kPa | 976
323.14 K, 4753.2 kPa | 975.9
323.14 K, 4776.2 kPa | 975.9
323.14 K, 4795.8 kPa | 976.1
323.14 K, 4819.1 kPa | 975.9
323.14 K, 4838.9 kPa | 976.1
323.14 K, 4862.6 kPa | 976.2
323.14 K, 4886.4 kPa | 976.1
